According to ChEMBL document CHEMBL1914415, “A sucrose-derived scaffold for multimerization of bioactive peptides” (Bioorg Med Chem, 2011):
Activity calls are given as the source filed them. The rule behind the calls is not given here.

Legend:
[1] = molecular target: Melanocortin receptor 4 (Homo sapiens) (UniProt P32245); experiment: Displacement of Eu-DTAP-NDP-alpha-MSH-NH2 from MC4 receptor expressed in human HEK293 cells at 10^-5 to 10^-12 M after 1 hr by time resolved fluorescence method; assay type: cell-based
[2] = molecular target: T1, Gastrin/cholecystokinin type B receptor (Homo sapiens) (UniProt P32239); experiment: Displacement of Eu-DTAP-CCK8-NH2 from CCK2 receptor expressed in human HEK293 cells at 10^-5 to 10^-12 M after 1 hr by time resolved fluorescence method; assay type: cell-based
T1 sequence (whole entry): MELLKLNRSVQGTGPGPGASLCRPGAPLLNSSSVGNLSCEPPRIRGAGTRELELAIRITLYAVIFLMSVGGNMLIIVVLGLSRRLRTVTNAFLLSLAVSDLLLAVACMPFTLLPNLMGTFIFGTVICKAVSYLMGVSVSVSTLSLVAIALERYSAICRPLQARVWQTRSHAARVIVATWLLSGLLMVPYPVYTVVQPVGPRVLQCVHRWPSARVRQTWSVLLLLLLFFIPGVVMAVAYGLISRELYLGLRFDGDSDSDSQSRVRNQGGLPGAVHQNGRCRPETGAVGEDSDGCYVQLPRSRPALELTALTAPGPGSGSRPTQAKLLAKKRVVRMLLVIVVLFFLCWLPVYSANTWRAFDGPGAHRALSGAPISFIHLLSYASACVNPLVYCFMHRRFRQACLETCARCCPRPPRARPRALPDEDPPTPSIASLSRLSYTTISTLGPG

Melanocortin receptor 4 (Homo sapiens), sequence (P32245 whole entry): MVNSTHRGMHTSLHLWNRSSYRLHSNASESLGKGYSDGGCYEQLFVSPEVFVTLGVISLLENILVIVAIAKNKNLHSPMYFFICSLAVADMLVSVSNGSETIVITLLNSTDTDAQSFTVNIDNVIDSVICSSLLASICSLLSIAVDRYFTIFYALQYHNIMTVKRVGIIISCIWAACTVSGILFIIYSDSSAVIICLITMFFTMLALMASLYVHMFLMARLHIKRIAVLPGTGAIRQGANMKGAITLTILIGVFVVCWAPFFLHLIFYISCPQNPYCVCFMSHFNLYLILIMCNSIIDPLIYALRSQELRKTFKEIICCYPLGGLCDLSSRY

Activity [1]: inactive | Activity [2]: inactive
Structure (SMILES): NC(=O)[C@H](CO)NC(=O)CCCCCn1cc(CCCCOC[C@H]2O[C@@](COCCCCc3cn(CCCCCC(=O)N[C@@H](CO)C(N)=O)nn3)(O[C@H]3O[C@H](COCCCCc4cn(CCCCCC(=O)N[C@@H](CO)C(N)=O)nn4)[C@@H](OCCCCc4cn(CCCCCC(=O)N[C@@H](CO)C(N)=O)nn4)[C@H](OCCCCc4cn(CCCCCC(=O)N[C@@H](CO)C(N)=O)nn4)[C@H]3OCCCCc3cn(CCCCCC(=O)N[C@@H](CO)C(N)=O)nn3)[C@@H](OCCCCc3cn(CCCCCC(=O)N[C@@H](CO)C(N)=O)nn3)[C@@H]2OCCCCc2cn(CCCCCC(=O)N[C@@H](CO)C(N)=O)nn2)nn1
